Reference: the supplement of paper PMC10733146

Experiments:
Assay in all cases: viability relative to DMSO control (fraction); higher = less drug effect (more viable cells)
Conditions in all cases: 48 h
Palbociclib = compound: CC(=O)c1c(C)c2cnc(Nc3ccc(N4CCNCC4)cn3)nc2n(C2CCCC2)c1=O [Palbociclib]
Procedure, shortened: (§1)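 In 384-well plates with compounds pre-plated at five concentrations (one well per concentration), primary mononuclear tumour cells were plated at 4 × 10^4 cells per well. The cells came from blood or bone marrow by Ficoll isolation or from processed lymph node, and were used fresh or cryopreserved. Culture ran for 48 h at 37 °C and 5% CO2 in RPMI-1640 containing penicillin/streptomycin, L-glutamine and human serum. Viability was read as CellTiter-Glo luminescence, normalised to the median of 16 inner DMSO wells.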

Venetoclax = compound: CC1(C)CCC(CN2CCN(c3ccc(C(=O)NS(=O)(=O)c4ccc(NCC5CCOCC5)c([N+](=O)[O-])c4)c(Oc4cnc5[nH]ccc5c4)c3)CC2)=C(c2ccc(Cl)cc2)C1 [Venetoclax]
Procedure, shortened: as §1

Navitoclax = compound: CC1(C)CCC(c2ccc(Cl)cc2)=C(CN2CCN(c3ccc(C(=O)NS(=O)(=O)c4ccc(N[C@H](CCN5CCOCC5)CSc5ccccc5)c(S(=O)(=O)C(F)(F)F)c4)cc3)CC2)C1 [Navitoclax]
Procedure, shortened: as §1

Barasertib = compound: CCN(CCCOc1ccc2c(Nc3cc(CC(=O)Nc4cccc(F)c4)[nH]n3)ncnc2c1)CCOP(=O)(O)O [Barasertib]
Procedure, shortened: as §1

EPZ-6438 = compound: CCN(c1cc(-c2ccc(CN3CCOCC3)cc2)cc(C(=O)NCc2c(C)cc(C)[nH]c2=O)c1C)C1CCOCC1 [EPZ-6438]
Procedure, shortened: as §1

I-BET-762 = compound: CCNC(=O)C[C@@H]1N=C(c2ccc(Cl)cc2)c2cc(OC)ccc2-n2c(C)nnc21 [I-BET-762]
Procedure, shortened: as §1

CPI-169 = compound: CCS(=O)(=O)N1CCC([C@@H](C)n2c(C)c(C(=O)NCc3c(OC)cc(C)[nH]c3=O)c3ccccc32)CC1 [CPI-169]
Procedure, shortened: as §1

[1] = compound: CCc1ccc(/C=C2/SC(=S)NC2=O)cc1
Procedure, shortened: as §1

[2] = compound: C[C@H](NC(=O)CCC(F)(F)F)C(=O)N[C@@H]1C(=O)N(CCO)c2ncccc2-c2ccccc21
Procedure, shortened: as §1

[3] = compound: C[C@H]1C[C@@H](n2c(Nc3ccc(OC(F)(F)F)cc3)nc3cc(CCC(=O)O)ccc32)CC(C)(C)C1
Procedure, shortened: as §1

Selinexor = compound: O=C(/C=C\n1cnc(-c2cc(C(F)(F)F)cc(C(F)(F)F)c2)n1)NNc1cnccn1 [Selinexor]
Procedure, shortened: as §1

[4] = compound: O=C(NO)c1cccc(C(=O)NCCc2ccccc2)c1
Procedure, shortened: as §1

Filgotinib = compound: O=C(Nc1nc2cccc(-c3ccc(CN4CCS(=O)(=O)CC4)cc3)n2n1)C1CC1 [Filgotinib]
Procedure, shortened: as §1

Thalidomide = compound: O=C1CCC(N2C(=O)c3ccccc3C2=O)C(=O)N1 [Thalidomide]
Procedure, shortened: as §1

Work on primary DLBCL patient cells (S082) yielded a viability (Palbociclib; 0.024 µM) of 0.976, a viability (Palbociclib; 0.12 µM) of 0.92 and a viability (Palbociclib; 0.6 µM) of 0.847. The viability (Palbociclib; 3 µM) was 0.848, the viability (Palbociclib; 15 µM) was 0.712 and the viability (Venetoclax; 0.00064 µM) was 1.01. For the same test system, the viability (Venetoclax; 0.0032 µM) was 0.876, the viability (Venetoclax; 0.016 µM) was 0.547 and the viability (Venetoclax; 0.08 µM) was 0.143. For the same test system, the viability (Venetoclax; 0.4 µM) was 0.0409, the viability (Navitoclax; 0.0032 µM) was 1.03 and the viability (Navitoclax; 0.016 µM) was 1. It also gave a viability (Navitoclax; 0.08 µM) of 0.772, a viability (Navitoclax; 0.4 µM) of 0.286 and a viability (Navitoclax; 2 µM) of 0.0483. It also gave a viability (Barasertib; 0.0008 µM) of 0.93, a viability (Barasertib; 0.004 µM) of 0.902 and a viability (Barasertib; 0.02 µM) of 0.881. The viability (Barasertib; 0.1 µM) was 0.945, the viability (Barasertib; 0.5 µM) was 0.979 and the viability (EPZ-6438; 0.024 µM) was 0.978. It also gave a viability (EPZ-6438; 0.12 µM) of 0.97, a viability (EPZ-6438; 0.6 µM) of 0.962 and a viability (EPZ-6438; 3 µM) of 0.896. It also gave a viability (EPZ-6438; 15 µM) of 0.905, a viability (I-BET-762; 0.008 µM) of 0.89 and a viability (I-BET-762; 0.04 µM) of 0.865. It also gave a viability (I-BET-762; 0.2 µM) of 0.633, a viability (I-BET-762; 1 µM) of 0.246 and a viability (I-BET-762; 5 µM) of 0.116. It also gave a viability (CPI-169; 0.024 µM) of 0.893, a viability (CPI-169; 0.12 µM) of 0.906 and a viability (CPI-169; 0.6 µM) of 0.87. For the same test system, the viability (CPI-169; 3 µM) was 0.859, the viability (CPI-169; 15 µM) was 0.866 and the viability ([1]; 0.024 µM) was 0.764. For the same test system, the viability ([1]; 0.12 µM) was 0.807, the viability ([1]; 0.6 µM) was 0.905 and the viability ([1]; 3 µM) was 0.871. For the same test system, the viability ([1]; 15 µM) was 0.821, the viability ([2]; 0.016 µM) was 1.1 and the viability ([2]; 0.08 µM) was 1.12. For the same test system, the viability ([2]; 0.4 µM) was 1.08, the viability ([2]; 2 µM) was 1.19 and the viability ([2]; 10 µM) was 1.16. It also gave a viability ([3]; 0.024 µM) of 0.849, a viability ([3]; 0.12 µM) of 1.04 and a viability ([3]; 0.6 µM) of 0.914. The viability ([3]; 3 µM) was 0.847, the viability ([3]; 15 µM) was 0.943 and the viability (Selinexor; 0.008 µM) was 0.931. For the same test system, the viability (Selinexor; 0.04 µM) was 0.971, the viability (Selinexor; 0.2 µM) was 1.03 and the viability (Selinexor; 1 µM) was 0.939. For the same test system, the viability (Selinexor; 5 µM) was 0.917, the viability ([4]; 0.024 µM) was 0.969 and the viability ([4]; 0.12 µM) was 0.932. The viability ([4]; 0.6 µM) was 0.951, the viability ([4]; 3 µM) was 0.899 and the viability ([4]; 15 µM) was 0.867. For the same test system, the viability (Filgotinib; 0.024 µM) was 0.971, the viability (Filgotinib; 0.12 µM) was 0.976 and the viability (Filgotinib; 0.6 µM) was 1.03. For the same test system, the viability (Filgotinib; 3 µM) was 0.933, the viability (Filgotinib; 15 µM) was 0.758 and the viability (Thalidomide; 0.032 µM) was 0.969. For the same test system, the viability (Thalidomide; 0.16 µM) was 0.938, the viability (Thalidomide; 0.8 µM) was 0.969 and the viability (Thalidomide; 4 µM) was 0.927. For the same test system, the viability (Thalidomide; 20 µM) was 1.01.

primary ALL patient cells (S088) was tested, and the viability (Palbociclib; 0.024 µM) was 0.877, the viability (Palbociclib; 0.12 µM) was 0.767 and the viability (Palbociclib; 0.6 µM) was 0.654. For the same test system, the viability (Palbociclib; 3 µM) was 0.481, the viability (Palbociclib; 15 µM) was 0.108 and the viability (Venetoclax; 0.00064 µM) was 0.916. It also gave a viability (Venetoclax; 0.0032 µM) of 0.657, a viability (Venetoclax; 0.016 µM) of 0.437 and a viability (Venetoclax; 0.08 µM) of 0.259. The viability (Venetoclax; 0.4 µM) was 0.181, the viability (Navitoclax; 0.0032 µM) was 1.01 and the viability (Navitoclax; 0.016 µM) was 0.751. For the same test system, the viability (Navitoclax; 0.08 µM) was 0.386, the viability (Navitoclax; 0.4 µM) was 0.189 and the viability (Navitoclax; 2 µM) was 0.106. It also gave a viability (Barasertib; 0.0008 µM) of 0.716, a viability (Barasertib; 0.004 µM) of 0.61 and a viability (Barasertib; 0.02 µM) of 0.415. The viability (Barasertib; 0.1 µM) was 0.614, the viability (Barasertib; 0.5 µM) was 0.588 and the viability (EPZ-6438; 0.024 µM) was 1.03. For the same test system, the viability (EPZ-6438; 0.12 µM) was 1.03, the viability (EPZ-6438; 0.6 µM) was 1.02 and the viability (EPZ-6438; 3 µM) was 0.928. For the same test system, the viability (EPZ-6438; 15 µM) was 0.742, the viability (I-BET-762; 0.008 µM) was 0.856 and the viability (I-BET-762; 0.04 µM) was 0.906. The viability (I-BET-762; 0.2 µM) was 0.857, the viability (I-BET-762; 1 µM) was 0.522 and the viability (I-BET-762; 5 µM) was 0.444. The viability (CPI-169; 0.024 µM) was 0.666, the viability (CPI-169; 0.12 µM) was 0.704 and the viability (CPI-169; 0.6 µM) was 0.707. The viability (CPI-169; 3 µM) was 0.632, the viability (CPI-169; 15 µM) was 0.548 and the viability ([1]; 0.024 µM) was 0.202. It also gave a viability ([1]; 0.12 µM) of 0.324, a viability ([1]; 0.6 µM) of 0.591 and a viability ([1]; 3 µM) of 0.593. The viability ([1]; 15 µM) was 0.571, the viability ([2]; 0.016 µM) was 1.08 and the viability ([2]; 0.08 µM) was 1.11. It also gave a viability ([2]; 0.4 µM) of 1.08, a viability ([2]; 2 µM) of 1.09 and a viability ([2]; 10 µM) of 1.05. It also gave a viability ([3]; 0.024 µM) of 0.471, a viability ([3]; 0.12 µM) of 0.597 and a viability ([3]; 0.6 µM) of 0.43. It also gave a viability ([3]; 3 µM) of 0.548, a viability ([3]; 15 µM) of 0.573 and a viability (Selinexor; 0.008 µM) of 0.494. It also gave a viability (Selinexor; 0.04 µM) of 0.339, a viability (Selinexor; 0.2 µM) of 0.115 and a viability (Selinexor; 1 µM) of 0.0421. For the same test system, the viability (Selinexor; 5 µM) was 0.0377, the viability ([4]; 0.024 µM) was 0.838 and the viability ([4]; 0.12 µM) was 0.868. The viability ([4]; 0.6 µM) was 0.907, the viability ([4]; 3 µM) was 0.931 and the viability ([4]; 15 µM) was 0.733. For the same test system, the viability (Filgotinib; 0.024 µM) was 0.831, the viability (Filgotinib; 0.12 µM) was 0.961 and the viability (Filgotinib; 0.6 µM) was 0.825. The viability (Filgotinib; 3 µM) was 0.893, the viability (Filgotinib; 15 µM) was 0.751 and the viability (Thalidomide; 0.032 µM) was 0.94. The viability (Thalidomide; 0.16 µM) was 0.902, the viability (Thalidomide; 0.8 µM) was 0.832 and the viability (Thalidomide; 4 µM) was 0.917. For the same test system, the viability (Thalidomide; 20 µM) was 0.962.
